For data set [1], the target named is T1, Human Serotonin 5-HT6R (Homo sapiens, UniProt P50406).
T1 construct: host or cells: 1321N1 (frozen recombinant cells)
Kind of data set: 5-HT6R functional assay, agonistic mode (cAMP, 1321N1 cells). In kind it is cell-based. As for the experimental part:
(§1) The properties of compounds to inhibit cAMP production induced by a 5-HT6R agonist 5-CT (1000 nM) was evaluated. Compounds were tested in triplicate at eight concentrations (10^−11–10^−4 M). The level of cAMP was measured using frozen recombinant 1321N1 cells expressing the Human Serotonin 5-HT6R (PerkinElmer). Total cAMP was measured using the LANCE cAMP Detection Kit (PerkinElmer), according to the manufacturer’s instructions. For quantification of cAMP levels, 2000 cells/well ([…]) were incubated with a mixture of compounds ([…]) for 30 min at room temperature in a 384-well white opaque microtiter plate. After incubation, the reaction was stopped and cells were lysed by the addition of […] of working solution ([…] ULight-anti-cAMP) for 1 h at room temperature. Time-resolved fluorescence resonance energy transfer (TR-FRET) was detected by an Infinite M1000 Pro (Tecan) using instrument settings from the LANCE cAMP Detection Kit manual. […] The agonistic properties of compounds were determined with an analogous procedure, but without stimulation with 5-CT [10, 36].

For data set [2], the system named is Male CD1 mice. Nature of the data set: MK-801-induced hyperactivity in mice. In kind it is in vivo. Conditions: i.p.; for reversal of MK-801-elevated activity: MK-801 0.35 mg/kg, 15: 0.5, 1, 3 mg/kg, 18: 0.05-3 mg/kg. The method, then: (§2) Animals. Male CD1 mice (Charles River, Germany) weighing 20–25 g at the time of arrival were used in behavioral experiments. Animals were kept under standard laboratory conditions (12:12 light: dark cycle, 22 ± 2 °C) with free access to food and water. Animal welfare has been regularly controlled by a veterinarian and animal welfare committee. After two weeks of acclimatization and handling, the experiments began. Experimental groups consisted of four to 10 animals, depending on the procedure. Drugs were administered intraperitoneally (i.p.) at a volume of 10 mL/kg. Experimental assessments were performed by an observer who was blinded to the treatment conditions. All procedures were conducted in accordance with the European Communities Council Directive of 22 September 2010 (2010/63/EU) and Polish legislation acts concerning animal experimentation and were approved by the II Local Ethics Committee by the Maj Institute of Pharmacology, Polish Academy of Sciences in Krakow (272/2019).
(§3) Drugs. MK-801 was purchased from Tocris Bioscience, Bristol, UK. MK-801 was dissolved in 0.9% NaCl. Compounds 15 and 18 were dissolved in 0.9% NaCl. All compounds were administered intraperitoneally (i.p.) in a volume of 10 mL/kg. Vehicle-treated animals received appropriate solvents. Vehicle was administered to animals in any case when drug administration was omitted (e.g., control or MK-801-treated groups).
The locomotor activity was recorded individually for each animal in locomotor activity cages (according to Rorick-Kehn et al., 2007a,b), with modifications (Wieronska et al., 2012). The mice were placed individually into activity cages (13 × 23 × 15 cm; Opto-M3; Columbus Instruments) for an acclimatization period of 30 min; then they were injected i.p. with compound 15 (0.5, 1, 3 mg/kg) or compound 18 (0.05, 0.1, 0.5, 1, 3 mg/kg) and placed again in the same cages. After 30 min, all of the mice were injected i.p. with MK-801 at 0.35 mg/kg and once again placed in the same cage. From then on, the ambulation scores were counted for 60 min. All of the groups were compared with the MK-801 control group. […]

In data set [3] the test system is Male CD1 mice. Kind of data set: Spontaneous locomotor activity of mice. It counts as in vivo. Conditions: i.p.; for Ambulation Scores ± SEM: 60 min, n = 5; for effect on spontaneous locomotor activity in words: all tested doses. The method, then:
Mice were placed separately into activity cages for an acclimatization period of 30 min, then they were injected i.p. with compound 15 (0.5, 1, and 3 mg/kg) or compound 18 (0.05, 0.1, 0.5, 1, and 3 mg/kg, respectively. After a further 30 min, they were injected with saline (10 mL/kg). From this point on, the ambulation scores were measured for 60 min. The data are presented as mean ± SEM, n = 5 mice per group. Data were analyzed with one-way ANOVA and Dunnett’s post-hoc. 15: F(3,16) = 1.225, p = 0.333; 18: F(5,24) = 0.791, p = 0.567.
as §2, §3
The locomotor activity was recorded individually for each animal in the OPTO-M3 locomotor activity cages described above. Each cage was surrounded with an array of photocell beams. […] Mice were placed separately into activity cages for an acclimatization period of 30 min, then were injected i.p. with compound 15 (0.5, 1, 3 mg/kg) compound 18 (0.05, 0.1, 0.5, 1, 3 mg/kg. After a further 30 min, they were injected with saline (10 mL/kg). From this point on, the ambulation scores were measured for 60 min.

Data set [4] has as its target T2, D2R (Homo sapiens, UniProt P14416). Nature of the data set: D2R functional assay, antagonist mode (cAMP, HEK293 cells). It counts as cell-based. Set-up: expressed in transfected cells. The method, then: The supernatant was aspirated, and the cell pellet was resuspended in stimulation buffer (1 × HBSS, 5 mM HEPES, 0.5 mM IBMX, 0.1% BSA).
The functional properties of compounds were evaluated using the LANCE Ultra cAMP Detection Kit (PerkinElmer). D2 receptors in HEK293 cells are coupled to Gi subtype and decreased cAMP production. […] Each compound was tested in triplicate at eight concentrations (10^−11–10^−4 M).
For quantification of cAMP levels, cells (5 µL) were incubated with 5 µL mixture of compounds (tested ligand and forskolin with 100 nM quinpirole for antagonist binding mode) for 30 min at room temperature in 384-well white opaque microtiter plate (PerkinElmer). After incubation, the reaction was stopped and cells were lysed by the addition of 10 µL working solution (5 µL Eu-cAMP and 5 µL ULight-anti-cAMP). The assay plate was incubated for 1 h at room temperature. Time-resolved fluorescence resonance energy transfer (TR-FRET) signal was detected by an Infinite M1000 Pro (Tecan) using instrument settings from the LANCE Ultra cAMP Detection Kit manual.

For data set [5], the target named is T2, D2R. Kind of data set: Radioligand binding assay, [3H]-raclopride displacement.
Data set [6] deals with T1, Human Serotonin 5-HT6R. Nature of the data set: 5-HT6R functional assay, antagonistic mode (cAMP induced by 5-CT, 1321N1 cells). In kind it is cell-based. As for the experimental part: as §1

Read-outs that look alike come from different tables or passages of the source.

T1 sequence (P50406 whole entry): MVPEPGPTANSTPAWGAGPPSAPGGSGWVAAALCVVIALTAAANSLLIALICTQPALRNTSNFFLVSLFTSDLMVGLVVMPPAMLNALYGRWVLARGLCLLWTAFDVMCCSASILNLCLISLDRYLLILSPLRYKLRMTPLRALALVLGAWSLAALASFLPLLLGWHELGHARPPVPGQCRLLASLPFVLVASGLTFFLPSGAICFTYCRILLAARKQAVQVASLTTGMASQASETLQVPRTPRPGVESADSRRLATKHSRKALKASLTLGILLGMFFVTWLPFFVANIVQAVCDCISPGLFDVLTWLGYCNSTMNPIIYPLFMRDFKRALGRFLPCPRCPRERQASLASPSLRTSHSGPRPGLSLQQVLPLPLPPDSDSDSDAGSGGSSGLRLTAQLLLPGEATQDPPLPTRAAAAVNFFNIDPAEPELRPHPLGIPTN
T2 sequence (P14416 whole entry): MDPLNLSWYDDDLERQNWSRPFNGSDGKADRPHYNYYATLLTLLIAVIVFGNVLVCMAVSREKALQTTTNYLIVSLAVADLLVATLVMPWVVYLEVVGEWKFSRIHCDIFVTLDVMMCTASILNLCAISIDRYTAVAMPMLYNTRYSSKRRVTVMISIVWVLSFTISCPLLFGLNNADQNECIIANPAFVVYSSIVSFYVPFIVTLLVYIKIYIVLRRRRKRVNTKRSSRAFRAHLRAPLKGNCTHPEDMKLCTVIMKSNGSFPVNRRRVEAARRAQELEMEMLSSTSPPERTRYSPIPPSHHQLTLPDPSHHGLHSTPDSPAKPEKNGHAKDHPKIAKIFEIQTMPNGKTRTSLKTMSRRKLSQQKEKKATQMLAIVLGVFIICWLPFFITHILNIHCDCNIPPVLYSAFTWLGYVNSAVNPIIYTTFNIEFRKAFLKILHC

One may read the EC50 as the midpoint of the concentration-response curve. As usually defined, the Papp is the rate of passage across a membrane or cell layer, normalised by area and donor concentration. Read a low Papp as poor permeation. A word on the Kb: it is the equilibrium dissociation constant of an antagonist, usually derived from a functional assay. By Ki is commonly meant a measure of affinity in units of concentration, obtained from inhibition or displacement. A lower Ki goes with higher affinity. Regarding `Brc1cccc2c(CNCCc3c[nH]c4ccccc34)c[nH]c12` [Compound 18], the “5-HT6R function in words (agonism)” value on Human Serotonin 5-HT6R [1] was “agonist”. This compound also had an EC50 on Human Serotonin 5-HT6R [1] of 77 nM. Moreover, the “reversal of MK-801-elevated activity” value in the data set on Male CD1 mice [2] is “did not reverse the locomotor activity elevated by the administration of MK-801”. In addition, the “Ambulation Scores ± SEM” value was determined as 113.6 ± 34.00 in the data set with Male CD1 mice [3] (0.05 mg/kg); 131.8 ± 19.50 in the data set on Male CD1 mice [3] (0.1 mg/kg); 116.7 ± 13.23 in the data set on Male CD1 mice [3] (0.5 mg/kg); 85.31 ± 15.86 in the data set with Male CD1 mice [3] (1 mg/kg); 87.79 ± 20.89 in the data set on Male CD1 mice [3] (3 mg/kg). The “effect on spontaneous locomotor activity in words” value with Male CD1 mice [3] is recorded as “did not influence the spontaneous locomotor activity of mice”. In addition, in “PAMPA permeability assay” (200 µM, PBS pH 7.4, 5 h, triplicate), the “PAMPA Pe ± SD” value was 3.90 10^−6 cm/s. Besides, the apparent permeability (Papp) at 5 h, 200 µM in “PAMPA permeability assay” (PAMPA, pH 7.4) turned out to be 3.9 ± 0.56 ×10⁻⁶ cm/s. In addition, the permeability in words entry in the data set “PAMPA permeability assay” (compared to caffeine and norfloxacin) was “rather low Pe value but still higher than norfloxacin”. Moreover, the Kb on D2R [4] came to 167 nM. In addition, the inhibition constant (Ki) at D2R [5] (Ki D2, Figure 8) was 55 nM; on D2R [5] (pKi D2, Table 1), 55 nM.
Turning to `Brc1ccc2c(CNCCc3c[nH]c4ccccc34)c[nH]c2c1` [Compound 15], at Human Serotonin 5-HT6R [6], the “5-HT6R function in words (antagonism)” value is recorded as “antagonist”. Also, the antagonist equilibrium constant (Kb) was 131 nM on Human Serotonin 5-HT6R [6] (antagonistic mode, 5-CT 1000 nM, read-out: 5-HT6 Kb) and 109 nM on D2R [4] (antagonistic mode, 100 nM quinpirole, read-out: D2 Kb). For the same compound, the “exacerbation of MK-801 hyperactivity” value with Male CD1 mice [2] (3 mg/kg) is reported as “not statistically significant”. Also, the “reversal of MK-801-elevated activity” value with Male CD1 mice [2] is “did not reverse the locomotor activity elevated by the administration of MK-801”. Further, the “Ambulation Scores ± SEM” value was determined as 134.9 ± 11.13 in the data set with Male CD1 mice [3] (0.5 mg/kg), 124.7 ± 21.75 with Male CD1 mice [3] (1 mg/kg) and 91.8 ± 24.61 in the data set on Male CD1 mice [3] (3 mg/kg). The “effect on spontaneous locomotor activity in words” value in the data set with Male CD1 mice [3] was “did not affect the locomotor activity of mice”. Where the note is “5 h, 200 µM, pH 7.4”, the “PAMPA Pe ± SD” value is 2.42 10^−6 cm/s. Besides, where the note is “PAMPA”, the permeability in words result is listed as “rather low Pe value but still higher than norfloxacin”. At D2R [4] (read-out: EC50 (D2 receptor, antagonistic function)), the EC50 was found to be 109 nM. In addition, the Ki on D2R [5] (Ki D2, Figure 8) is 290 nM; on D2R [5] (pKi D2, Table 1), 288 nM.

Values taken from article PMC8347595, “N-Skatyltryptamines—Dual 5-HT6R/D2R Ligands with Antipsychotic and Procognitive Potential” (Molecules, 2021).
